Key:
cortical neurons = test: Neuroprotective effect against glutamate-induced neurotoxicity; type: cell-based, rat; conditions: for TUNEL-Positive Cells (apoptosis): 12 hours after glutamate treatment; for Free LDH Levels (necrosis): 20 hours after glutamate treatment
Experimental: Cortical neurons were isolated from the brain of 14-day-old fetal rats and cultured in Eagle's MEM (Minimum essential medium) at 37° C. in a 5% CO2 atmosphere. On day 3 or 4 of culturing, 10 μM cytosine-β-arabinofuranoside (AraC) was added to the culture medium to prevent the overgrowth of glial cells. […] On day 7˜9 of culturing, the cells were induced to cellular toxicity by treatment with 100 μM glutamate in combination with the compounds of interest or vehicle alone as a negative control. Necrosis was determined by released LDH (Lactate dehydrogenase) levels at 20 hours after glutamate treatment. For the analysis of apoptosis, the count of TUNEL (Terminal deoxynucleotidyl transferase UTP nick end labeling)-positive cells was measured at 12 hours after glutamate treatment.

[1] = tested on: isolated ischemic rat heart; test: Cardioprotective effect in isolated ischemic rat heart model (Langendorff); conditions: 10 μM, 30 min global ischemia, 30 min reperfusion
Experimental: Male rats (300 450 g, the Korea Research Institute of Chemical Technology, Experimental Animal Lab) were anesthetized by intraperitoneal injection with sodium pentobarbital at a dose of 100 mg/kg and were intravenously administered with heparine at a dose of 1000 U/kg, followed by the excision of the heart. In detail, a tracheotomy was performed and a tracheal cannula (PE 240) was inserted into the trachea for subsequent artificial ventilation with room air using a rodent ventilator. […] A catheter tip manometer connected to a latex balloon filled with a mixture of ethanol and distilled water (1:1 v/v) was inserted via an incision in the left atrium into the left ventricle, and the intraventricular pressure thereof transmitted to the latex balloon was measured isovolumetrically with a transducer and recorded on a recording system (Linearcorder mark 8 WR 3500) with the aid of an amplifier (Plugsys bridge amplifier). After stabilizing the heart for 15 min, the balloon volume was adjusted to create a left ventricular end-diastolic pressure (LVEDP) of 5 mmHg during the initial baseline period. The volume of the balloon was maintained until the end of the experiment. Baseline heart contraction function, spontaneous heart rate (HR) and coronary flow (CF) were determined from the left ventricular contraction interval. The left ventricular developed pressure (LVDP), which is regarded as an index of contractile function of the isolated heart, was calculated by subtracting left ventricular end-diastolic pressure (LVEDP) from left ventricular peak systolic pressure (LVSP). In contrast to the heart in the body, the Langendorff heart cannot be measured for cardiac output and thus, RPP (rate-pressure product), which is an important indirect indicator for cardiac performance, was calculated by multiplying heart rate (HR) by LVDP. Throughout the experiment, the temperature of the heart was maintained constant by […] in a 37° C. physiological solution to which 95% O2/5% CO2 was continuously supplied. The heart thus stabilized was perfursed for 10 min with a solution of the compounds of the invention or control drugs in DMSO (dimethylsulfoxide) diluted with HBS (final DMSO conc. 0.04%), or with the solvent only (a negative control; 0.04% DMSO) and then measured again for contractile function, heart rate (HR) and coronary flow (CF). The supply of perfusates was completely stopped for 30 min in order to induce global ischemia in the heart, followed by reperfusion for 30 min. The indices (LVDP, HR, LVEDP, and CF) were measured again. After the reperfusion, the total level of lactate dehydrogenase (LDH) in the reperfusates was measured using a kit and taken as an index of ischemic myocardial injury. A negative control group was treated with the solvent only while cariporide was used as a positive control.

Human NHE-1 = target: T1, Human NHE-1 (Homo sapiens, UniProt P19634); test: Inhibitory effect on NHE-1 in PS120/NHE-1 cells (recovery from intracellular acidosis, BCECF fluorescence); type: cell-based; conditions: human NHE-1 expressed PS120 cells; concentration at which recovery from intracellular acidosis was 50% inhibited
T1 construct: expressed in transfected cells; host or cells: CCL39-derived PS120 cells (PS120/NHE-1)
T1 sequence (P19634 whole entry): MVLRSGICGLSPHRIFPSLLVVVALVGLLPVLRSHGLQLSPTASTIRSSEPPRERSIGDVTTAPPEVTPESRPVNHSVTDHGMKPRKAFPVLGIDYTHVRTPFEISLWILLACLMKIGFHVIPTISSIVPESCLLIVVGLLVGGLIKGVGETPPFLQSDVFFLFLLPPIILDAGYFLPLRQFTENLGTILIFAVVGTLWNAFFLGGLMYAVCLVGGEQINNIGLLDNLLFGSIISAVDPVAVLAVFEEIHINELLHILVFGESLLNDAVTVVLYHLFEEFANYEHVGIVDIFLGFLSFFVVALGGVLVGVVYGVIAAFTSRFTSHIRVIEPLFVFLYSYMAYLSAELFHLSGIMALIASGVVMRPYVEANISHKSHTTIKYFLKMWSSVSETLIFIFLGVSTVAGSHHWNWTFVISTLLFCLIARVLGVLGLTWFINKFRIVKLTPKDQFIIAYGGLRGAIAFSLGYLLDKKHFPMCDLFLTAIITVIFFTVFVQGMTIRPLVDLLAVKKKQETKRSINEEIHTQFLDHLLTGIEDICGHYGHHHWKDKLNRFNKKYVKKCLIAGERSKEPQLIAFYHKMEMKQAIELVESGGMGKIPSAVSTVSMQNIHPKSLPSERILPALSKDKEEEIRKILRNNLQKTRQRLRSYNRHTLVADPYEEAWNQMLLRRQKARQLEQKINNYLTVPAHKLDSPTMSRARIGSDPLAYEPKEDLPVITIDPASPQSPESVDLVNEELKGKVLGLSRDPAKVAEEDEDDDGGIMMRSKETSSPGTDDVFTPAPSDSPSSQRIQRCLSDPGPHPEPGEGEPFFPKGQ

Compound: CS(=O)(=O)O.N#Cc1cccc2sc(C(=O)N=C(N)N)cc12 [Example 42, (4-Cyanobenzothiophene-2-Carbonyl)Guanidine Methanesulfonate]
- TUNEL-Positive Cells (apoptosis) (cortical neurons; 0.1 μM with 100 μM glutamate): 28.6
- Free LDH Levels (necrosis) (cortical neurons; 0.1 μM with 100 μM glutamate): 58.6
- TUNEL-Positive Cells (apoptosis) (cortical neurons; 1.0 μM with 100 μM glutamate): 23.9
- Free LDH Levels (necrosis) (cortical neurons; 1.0 μM with 100 μM glutamate): 43.2
- TUNEL-Positive Cells (apoptosis) (cortical neurons; 10 μM with 100 μM glutamate): 18.8
- Free LDH Levels (necrosis) (cortical neurons; 10 μM with 100 μM glutamate): 38.8
- TUNEL-Positive Cells (apoptosis) (cortical neurons; 100 μM with 100 μM glutamate): 12.6
- Free LDH Levels (necrosis) (cortical neurons; 100 μM with 100 μM glutamate): 32.3
- necrosis and apoptosis of neurons (glutamate-induced neurotoxicity) (cortical neurons; 0.1-100 μM with 100 μM glutamate): inhibited the necrosis and apoptosis of neurons in dose-dependent manners
- LDH (free LDH level upon reperfusion) [1]: 14.7 u/g
- LVEDP (left ventricular end-diastolic pressure) [1]: 6.0 mmHg
- IC50 (Human NHE-1): 2.02 µM
